Experimental data as given in PubChem BioAssay AID2060602 (Molecular Pharmacology Branch, DTP, NCI, 2025).

Tested on: 648629-189-R-J1-PDC complex spheroids viability
Experiment: Anticancer human tumor 648629-189-R-J1-PDC patient-derived bladder carcinoma cell line growth inhibition [CLK]
Details: for viability, T/C: stronger effect = lower value
Summary of the method: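 Patient-derived tumor cells grown as complex spheroids with HUVEC endothelial cells and mesenchymal stem cells, treated with drug combinations. Concentrations descend in half-log steps from near clinical Cmax, or from 10 microM if Cmax unknown.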

[1] = curve of first compound, second compound 0.0316 µM
[2] = curve of first compound, second compound 0.1 µM
[3] = curve of first compound, second compound 0.316 µM
[4] = curve of first compound, second compound 1 µM
[5] = curve of first compound, second compound 3.16 µM
[6] = curve of first compound, second compound 10 µM
[7] = second compound 0.0316 µM, first compound 0.0316 µM
[8] = second compound 0.0316 µM, first compound 0.1 µM
[9] = second compound 0.0316 µM, first compound 0.316 µM
[10] = second compound 0.0316 µM, first compound 1 µM
[11] = second compound 0.0316 µM, first compound 3.16 µM
[12] = second compound 0.0316 µM, first compound 10 µM
[13] = second compound 0.1 µM, first compound 0.0316 µM
[14] = second compound 0.1 µM, first compound 0.1 µM
[15] = second compound 0.1 µM, first compound 0.316 µM
[16] = second compound 0.1 µM, first compound 1 µM
[17] = second compound 0.1 µM, first compound 3.16 µM
[18] = second compound 0.1 µM, first compound 10 µM
[19] = second compound 0.316 µM, first compound 0.0316 µM
[20] = second compound 0.316 µM, first compound 0.1 µM
[21] = second compound 0.316 µM, first compound 0.316 µM
[22] = second compound 0.316 µM, first compound 1 µM
[23] = second compound 0.316 µM, first compound 3.16 µM
[24] = second compound 0.316 µM, first compound 10 µM
[25] = second compound 1 µM, first compound 0.0316 µM
[26] = second compound 1 µM, first compound 0.1 µM
[27] = second compound 1 µM, first compound 0.316 µM
[28] = second compound 1 µM, first compound 1 µM
[29] = second compound 1 µM, first compound 3.16 µM
[30] = second compound 1 µM, first compound 10 µM
[31] = second compound 3.16 µM, first compound 0.0316 µM
[32] = second compound 3.16 µM, first compound 0.1 µM
[33] = second compound 3.16 µM, first compound 0.316 µM
[34] = second compound 3.16 µM, first compound 1 µM
[35] = second compound 3.16 µM, first compound 3.16 µM
[36] = second compound 3.16 µM, first compound 10 µM
[37] = second compound 10 µM, first compound 0.0316 µM
[38] = second compound 10 µM, first compound 0.1 µM
[39] = second compound 10 µM, first compound 0.316 µM
[40] = second compound 10 µM, first compound 1 µM
[41] = second compound 10 µM, first compound 3.16 µM
[42] = second compound 10 µM, first compound 10 µM
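Wherever viability, T/C is given: drug exposure lasted seven days before viability readout; 100% = DMSO vehicle control wells.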

O=C(c1cc(Cc2n[nH]c(=O)c3ccccc23)ccc1F)N1CCN(C(=O)C2CC2)CC1 + CNC(=O)c1ccc(Nc2nc(OC3CCCC3)c3c(-c4ccc5nc(C)oc5c4)c[nH]c3n2)c(OC)c1
IC50 [1]: > 10000 nM | IC50 [2]: > 10000 nM | IC50 [3]: < 31.6 nM | IC50 [4]: < 31.6 nM | IC50 [5]: < 31.6 nM | IC50 [6]: < 31.6 nM | viability, T/C [7]: 92.3% | viability, T/C [8]: 101% | viability, T/C [9]: 103% | viability, T/C [10]: 106% | viability, T/C [11]: 83.3% | viability, T/C [12]: 74.9% | viability, T/C [13]: 93.6% | viability, T/C [14]: 95.1% | viability, T/C [15]: 89.3% | viability, T/C [16]: 86.9% | viability, T/C [17]: 82.9% | viability, T/C [18]: 70.8% | viability, T/C [19]: 26.9% | viability, T/C [20]: 29% | viability, T/C [21]: 27.1% | viability, T/C [22]: 29.1% | viability, T/C [23]: 28.7% | viability, T/C [24]: 27.4% | viability, T/C [25]: 18.8% | viability, T/C [26]: 17.3% | viability, T/C [27]: 20.1% | viability, T/C [28]: 17.2% | viability, T/C [29]: 17.6% | viability, T/C [30]: 18.6% | viability, T/C [31]: 15.9% | viability, T/C [32]: 18.9% | viability, T/C [33]: 19% | viability, T/C [34]: 20.3% | viability, T/C [35]: 19% | viability, T/C [36]: 19.2% | viability, T/C [37]: 23.8% | viability, T/C [38]: 21.7% | viability, T/C [39]: 22% | viability, T/C [40]: 19% | viability, T/C [41]: 20.2% | viability, T/C [42]: 21.1%

Nc1ccn(C2OC(CO)C(O)C2(F)F)c(=O)n1 (configuration not stated) + CN1CCN(c2cc(C(=O)Nc3cc4cc(-c5cnn(C)c5)ccc4cn3)ccn2)CC1
IC50 [1]: 52.9 nM | IC50 [2]: 49.8 nM | IC50 [3]: < 31.6 nM | IC50 [4]: < 31.6 nM | IC50 [5]: < 31.6 nM | IC50 [6]: < 31.6 nM | viability, T/C [7]: 65.2% | viability, T/C [8]: 31.1% | viability, T/C [9]: 11.9% | viability, T/C [10]: 5.88% | viability, T/C [11]: 5.69% | viability, T/C [12]: 4.49% | viability, T/C [13]: 67.7% | viability, T/C [14]: 22.8% | viability, T/C [15]: 10.1% | viability, T/C [16]: 5.67% | viability, T/C [17]: 4.53% | viability, T/C [18]: 3.3% | viability, T/C [19]: 32.1% | viability, T/C [20]: 22.7% | viability, T/C [21]: 13% | viability, T/C [22]: 7.45% | viability, T/C [23]: 9.18% | viability, T/C [24]: 5.35% | viability, T/C [25]: 0.19% | viability, T/C [26]: 0.38% | viability, T/C [27]: 1.02% | viability, T/C [28]: 0.31% | viability, T/C [29]: 0.14% | viability, T/C [30]: 1.01% | viability, T/C [31]: 0.09% | viability, T/C [32]: 1.1% | viability, T/C [33]: 0.11% | viability, T/C [34]: 0.09% | viability, T/C [35]: 0.1% | viability, T/C [36]: 0.39% | viability, T/C [37]: 0.12% | viability, T/C [38]: 0.13% | viability, T/C [39]: 0.17% | viability, T/C [40]: 0.17% | viability, T/C [41]: 0.28% | viability, T/C [42]: 0.17%

Nc1ccn(C2OC(CO)C(O)C2(F)F)c(=O)n1 (configuration not stated) + CNC(=O)c1ccc(Nc2nc(OC3CCCC3)c3c(-c4ccc5nc(C)oc5c4)c[nH]c3n2)c(OC)c1
IC50 [1]: 38.2 nM | IC50 [2]: 42.1 nM | IC50 [3]: < 31.6 nM | IC50 [4]: < 31.6 nM | IC50 [5]: < 31.6 nM | IC50 [6]: < 31.6 nM | viability, T/C [7]: 56.8% | viability, T/C [8]: 16.1% | viability, T/C [9]: 10.6% | viability, T/C [10]: 8.41% | viability, T/C [11]: 8.43% | viability, T/C [12]: 6.82% | viability, T/C [13]: 58.7% | viability, T/C [14]: 23.9% | viability, T/C [15]: 10.1% | viability, T/C [16]: 8.46% | viability, T/C [17]: 7.09% | viability, T/C [18]: 5.88% | viability, T/C [19]: 18.1% | viability, T/C [20]: 14.3% | viability, T/C [21]: 8.69% | viability, T/C [22]: 7.21% | viability, T/C [23]: 7.97% | viability, T/C [24]: 6.5% | viability, T/C [25]: 18.2% | viability, T/C [26]: 13.3% | viability, T/C [27]: 11.8% | viability, T/C [28]: 8.47% | viability, T/C [29]: 9.1% | viability, T/C [30]: 7.07% | viability, T/C [31]: 16.2% | viability, T/C [32]: 14.8% | viability, T/C [33]: 11.2% | viability, T/C [34]: 11.7% | viability, T/C [35]: 11.2% | viability, T/C [36]: 7.1% | viability, T/C [37]: 18.1% | viability, T/C [38]: 18% | viability, T/C [39]: 14.7% | viability, T/C [40]: 10.1% | viability, T/C [41]: 9.44% | viability, T/C [42]: 7.39%

CN1CCN(c2cc(C(=O)Nc3cc4cc(-c5cnn(C)c5)ccc4cn3)ccn2)CC1
viability, T/C (compound 0.0316 µM): 113% [middle of 12 runs] | viability, T/C (compound 0.1 µM): 105% [middle of 12 runs] | viability, T/C (compound 1 µM): 0.38% [middle of 11 runs] | viability, T/C (compound 3.16 µM): 0.16% [middle of 7 runs] | viability, T/C (compound 10 µM): 0.15% [middle of 7 runs] | IC50 (compound alone, run of 07/31/2023): 286 nM [middle of 11 runs]
